Test results: US20220356163A1, “SMALL MOLECULE INHIBITORS OF Id PROTEINS” (MEMORIAL SLOAN KETTERING CANCER CENTER, priority 2019, published 2022)
pIC50, pKd: −log10 of the molar value. Entries after “also recorded” stand apart in the source; their conditions may differ. Read-outs that look alike come from different tables or passages of the source.

Experiments:
TFK-1 = assay: Cholangiocarcinoma cell viability, TFK-1; type: cell-based
Protocol: (§1) Cell viability assays. Cell lines were seeded in a 96 well plate (5000 cells per well). After overnight incubation, cells were treated with AGX51 and incubated for 24 hours then MTT reagent (5 mg/mL) was added per well and the cells were incubated for four hours. Following incubation, media was aspirated and 200 μL DMSO was added per well. Absorbance was then measured at 570 nm using a plate reader (Synergy 2, BioTek). Cell growth profiles were determined by seeding 38,000 cells in a 24-well plate, in triplicate for each time point, and counting the cells on days 1, 3 and 5 after seeding, using trypan blue exclusion of dead cells.
(§2) The effects of AGX51 and AGX-A on cholangiocarcinoma cell viability were assessed for the six different cholangiocarcinoma cell lines. The measured IC50 values (in μM) from these studies are provided in Table 2 below, along with the ratio of the AGX51 IC50 to the AGX-A IC50 to aid in comparison.

HUCC-T1 = assay: Cholangiocarcinoma cell viability, HUCC-T1; type: cell-based
Protocol: as §1, §2

SNU-1079 = assay: Cholangiocarcinoma cell viability, SNU-1079; type: cell-based
Protocol: as §1, §2

Id1 = molecular target: T1, Id1 (Mus musculus, UniProt P20067); assay: Circular dichroism (CD) of Id1; type: binding
T1 construct: GST (N, cleaved yes); made in house; host or cells: E. coli Rosetta 2(DE3)
T1 sequence (P20067 1-168): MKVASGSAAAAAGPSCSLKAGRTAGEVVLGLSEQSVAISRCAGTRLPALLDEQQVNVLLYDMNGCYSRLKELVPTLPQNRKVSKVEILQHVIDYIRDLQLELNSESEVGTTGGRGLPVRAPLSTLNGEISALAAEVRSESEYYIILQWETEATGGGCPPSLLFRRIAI
Protocol: Id protein purification. pGEV-PSP-mId1 and mId3 expression constructs were transformed into Rosetta 2(DE3) Competent Cells (Sigma Millipore) for protein expression. To produce recombinant GST-tagged protein, a 50 mL LB/Ampicillin (100 μg/m)+Chloramphenicol (25 μg/mL) culture was grown overnight at 37° C. Early the next day, the overnight culture was diluted 1:100 into 6 L LB/Ampicillin+Chloramphenicol and cultured at 37° C. for about four hours until OD600=0.7. Cultures were induced with 1 mM IPTG and incubated at 16° C. for 16-18 hours. Cells were harvested by centrifugation at 4000 rpm for 15 minutes at 4° C. and the pellet was resuspended in lysis buffer (50 mM Tris pH 8.0; 400 mM NaCl; 0.5 mM TCEP, Protease Inhibitor Cocktail) (25 mL/L of culture). To lyse the cells, Triton X-100 and lysozyme were added to 0.1% and 10 μg/mL respectively, incubated for 30 minutes on ice and sonicated. Lysates were spun at 17,000 rpm for 30 minutes at 4° C. and supernatants were filtered through a […] filter before incubation with glutathione sepharose for two hours at 4° C. The sepharose with bound protein was run through a polypropylene column and washed twice with 50 mL wash buffer (50 mM Tris pH 8.0; 400 mM NaCl) before protein was eluted with 10 mL 50 mM glutathione elution buffer, pH 8.0. Protein was subjected to buffer exchange with PD10 columns (Sigma) into 12 mL storage buffer (50 mM Tris HCl pH 8.0, 400 mM NaCl, 10 mM EDTA, 1 mM DTT, 10% Glycerol).
GST-tag was cleaved with PreScission Protease (0.1 μL of 0.3 μg/μL PreScission Protease cleaves 10 μg of GST-mId1 when incubated at 4° C. for four hours) and incubated with Glutathione Sepharose to separate out the cleaved GST-tag. The cleaved mId1 protein was further cleaned by incubation with GST antibodies (Abcam #ab9085-200 μL anti-GST rabbit polyclonal; ThermoFisher #MA4-004 anti-GST mouse monoclonal) before Coomassie gel analysis. Cleaved protein was concentrated to desired strength using Amicon 3000MCO Ultra-4 centrifugal columns (UFC800308).
Circular dichroism. […]

HCT116 cells = assay: IC50 in HCT116 cells (FIG. 7C); type: cell-based
WITT = assay: Cholangiocarcinoma cell viability, WITT; type: cell-based
Protocol: as §1, §2

NanoLuc-ID1 = molecular target: T2, NanoLuc-ID1 (Homo sapiens, UniProt P41134); assay: NanoBRET target engagement assay in digitonin-permeabilized 293T cells; type: cell-based; conditions: 2 μM tracer, 0-60 μM competitor, 50 μg/mL digitonin
T2 construct: expressed in transfected cells; host or cells: 293T cells, pcDNA3.1, digitonin-permeabilized
T2 sequence (P41134 whole entry): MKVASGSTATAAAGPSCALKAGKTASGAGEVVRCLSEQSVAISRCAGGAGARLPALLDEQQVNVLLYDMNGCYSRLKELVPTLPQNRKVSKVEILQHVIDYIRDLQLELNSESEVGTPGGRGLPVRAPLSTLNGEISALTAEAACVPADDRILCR
Protocol: NanoBRET™ target engagement assay. A N-terminal NanoLuc® luciferase ID1 fusion protein was synthesized by Genewiz (South Plainfield, N.J., USA) into the pUC57 backbone and then cloned into the pcDNA3.1 plasmid with EcoRI-HF and XbaI (both enzymes from New England Biolabs, Ipswich, Mass., USA). The assay was performed essentially as described in the NanoBRET™ TE Intracellular BET BRD Assay kit manual (Promega Corporation, Madison, Wis., USA). Briefly, cells were transfected and after 24 hours were plated onto flat bottom, non-binding surface, white, polystyrene 96-well plates (Corning Incorporated, Kennebunk, Me., USA). The AGX51 tracer was then added ([…]), followed by digitonin (Sigma, St. Louis, Mo., USA) to permeabilize the cells ([…]). The NanoBRET™ Nano-Glo® Substrate (Promega) was then added and readings taken using a GloMax Discover System instrument (Promega). For the competition assays, cells were treated with 2 μM of AGX51 tracer and 0-60 μM of AGX-A or AGX51.
This assay is based on the NanoBRET™ Target Engagement Intracellular BET BRD Assay (Promega). A construct expressing a NanoLuc® luciferase ID1 fusion protein and an AGX51-fluorescent tracer was generated (FIG. 10A). […]

SNU-1196 = assay: Cholangiocarcinoma cell viability, SNU-1196; type: cell-based
Protocol: as §1, §2

Structure (SMILES)	pIC50 (TFK-1; TFK-1)	pIC50 (HUCC-T1; Homo sapiens, HuCCT-1)	pIC50 (SNU-1079)	alteration of Id1 secondary structure (CD spectra) (Id1; 0, 10, 20 and 50 μM)	pKd (Id1; implied from saturation of CD changes, read-out: concentration at which CD changes saturated / range of dissociation constant)	pIC50 (HCT116 cells; Homo sapiens, HCT-116, HCT116 cells, FIG. 7C)	pIC50 (WITT)	competition with AGX51 tracer (NanoLuc-ID1)	pIC50 (SNU-1196)	dose-dependent effect on TFK1 cell viability vs AGX51 (TFK-1; 24 hour period, FIG. 23)	(AGX51 IC50)/(AGX-A IC50) (TFK-1; TFK-1)	(AGX51 IC50)/(AGX-A IC50) (HUCC-T1)	pIC50 (HUCC-T1)	(AGX51 IC50)/(AGX-A IC50) (SNU-1079)	relative activity in CD assay with Id1 (Id1; comparison between compounds)	fold reduction in IC50 values vs AGX51 (HCT116 cells; cell-based assays, FIGS. 7C-7D (HCT116 and 4T1)) [fold]	(AGX51 IC50)/(AGX-A IC50) (WITT)	(AGX51 IC50)/(AGX-A IC50) (SNU-1196)
CCC(=O)N(CCC(c1ccc2c(c1)OCO2)c1ccccc1OC)Cc1ccccc1 (racemic) [AGX51, N-(3-(benzo[d][1,3]dioxol-5-yl)-3-(2-methoxyphenyl)propyl)-N-benzylpropionamide]	4.80	4.83	4.64	significant alteration in the secondary structure of Id1	~4.70	4.65	4.48	could be competed with AGX51	4.54	–	–	–	–	–	–	–	–	–
COc1ccccc1C(CCNCc1ccccc1)c1ccc(OC(C)C)cc1 (centres unmarked) [AGX-A, N-benzyl-3-(4-isopropoxyphenyl)-3-(2-methoxyphenyl)propan-1-anine]	4.93	–	5.23	–	–	–	5.27	more efficiently; also recorded: exhibiting greater activity than AGX51; also recorded: worked at lower concentrations than AGX51	4.83	superior anti-cancer potency	1.33	3.33	5.35	3.95	exhibiting greater activity than AGX51; also recorded: worked at lower concentrations than AGX51	~4	6.25	1.94
